Patent US20250092031A1, “RIPK3 INHIBITORS AND METHODS OF USE” (Momentum Therapeutics, Inc., priority 2023, published 2025)

Columns and labels:
RIPK3 = target: T1, RIPK3 (Homo sapiens, UniProt Q9Y572); experiment: RIPK3 kinase assay (radiometric HotSpot, Reaction Biology Corporation); type: biochemical
T1 construct: purchased Reaction Biology Corporation (RBC), Malvern, USA (contract assay service)
Description: The assays were performed in Reaction Biology Corporation (RBC), Malvern, USA. Compounds were diluted with DMSO to a final stock concentration of 10 mM and then were tested in a 10-dose IC50 mode with a 3-fold serial dilution starting at […]. All the reactions were carried out at 10 μM ATP and MBP 20 μM as substrates. RIPK3 activity was determined using radiometric HotSpot™ kinase assay protocol and IC50 values were calculated use GraphPad Prism software.

Murine L929 cells = experiment: Necroptosis inhibition assay in L929 cells (mTNFα + zVAD, Sytox Green); type: cell-based; conditions: Mus musculus, 10 ng/ml mTNFα and 20 μM zVAD, 6 hours, Sytox Green fluorescence
In short: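 Murine L929 cells, treated 48 h after seeding with 10 ng/ml mTNFα plus 20 μM zVAD and compound ([…]), 6 h at 37° C. Necroptosis read by Sytox Green fluorescence (500ex/530em), scaled between 0.1% DMSO and TNFα+zVAD wells; IC50 from inhibition curves.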

Human HT-29 cells = experiment: Necroptosis inhibition assay in HT-29 cells (hTNFα + zVAD + SMAC mimetic, Sytox Green/Hoechst); type: cell-based; conditions: 10 ng/ml hTNFα, 20 μM zVAD and 100 nM SMAC mimetic, 6 hours, Sytox/Hoechst positive cells, read-out: HT29 necroptosis inhibition IC50
Description: Human HT-29 cells (ATCC-HTB-38) were seeded at 10,000 cells/well in a 96-well plate. Cells were treated 48 hours after seeding with 10 ng/ml hTNFα (R&D Systems), 20 μM zVAD (ChemShuttle) and 100 nM SMAC mimetic (MedChem Express) in the presence of different concentrations of compounds ranging from […] to 0.01 μM. Cells treated with 0.1% DMSO or cells treated with TNFα+zVAD+SMAC mimetic were used as control and vehicle respectively.
Assay plates containing cells were incubated for 6 hours at 37° C. and 5% CO2. Necroptosis was assessed using Sytox Green Nucleic Acid Stain (Invitrogen) and Hoechst staining. After incubation, 100 μL of Sytox dye at 2 μM (2×) diluted in HBSS 1× was added to each well. At the same time, Hoechst stain is added to a final concentration of 10 μM and incubated for 15 min at room temperature. Images were taken for Sytox and Hoechst using the Cytation 5 microplate reader with DAPI and GFP filter cubes (Biotek). Sytox and Hoechst positive cells were counted with CellProfiler software.
Percentage of necroptosis inhibition was calculated as the percent compared to control and vehicle conditions which correspond to 100% and 0% respectively. The half-maximum necroptosis inhibition (IC50) levels were calculated using GraphPad Prism software and are shown in Table 3 (NT represents compound not tested).

T1 sequence (Q9Y572 whole entry): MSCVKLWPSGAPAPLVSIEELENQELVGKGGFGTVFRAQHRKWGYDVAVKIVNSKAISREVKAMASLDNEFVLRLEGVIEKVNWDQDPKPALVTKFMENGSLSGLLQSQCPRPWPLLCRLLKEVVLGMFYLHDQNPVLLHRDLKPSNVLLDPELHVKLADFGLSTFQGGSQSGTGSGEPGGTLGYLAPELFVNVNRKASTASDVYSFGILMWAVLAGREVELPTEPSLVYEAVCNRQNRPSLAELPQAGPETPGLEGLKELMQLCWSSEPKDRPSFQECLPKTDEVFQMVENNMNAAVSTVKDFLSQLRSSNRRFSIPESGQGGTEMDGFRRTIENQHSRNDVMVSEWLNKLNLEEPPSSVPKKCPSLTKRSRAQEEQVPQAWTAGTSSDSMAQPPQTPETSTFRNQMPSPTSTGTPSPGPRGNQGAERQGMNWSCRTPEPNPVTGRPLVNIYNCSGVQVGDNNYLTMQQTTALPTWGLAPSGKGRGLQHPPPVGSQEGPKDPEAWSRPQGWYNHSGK

CN1CCN(Cc2ccc(-c3ccc4nccc(Nc5ccc6scnc6c5)c4c3)cc2)CC1 [Compound 1, N-(6-(4-((4-methylpiperazin-1-yl)methyl)phenyl)quinolin-4-yl)benzo[d]thiazol-5-amine]
IC50 (RIPK3): 2.58 nM
IC50 (Murine L929 cells): 341 nM
IC50 (Human HT-29 cells): 334 nM

CN1CCN(Cc2ccc(-c3ccc4nccc(Nc5ccc6scnc6c5)c4c3)c(F)c2)CC1 [Compound 11, N-(6-(2-fluoro-4-((4-methylpiperazin-1-yl)methyl)phenyl)quinolin-4-yl)benzo[d]thiazol-5-amine]
IC50 (RIPK3): 1.29 nM
IC50 (Murine L929 cells): 333 nM
IC50 (Human HT-29 cells): 102 nM

O=C1CN(Cc2ccc(-c3ccc4nccc(Nc5ccc6scnc6c5)c4c3)c(F)c2)CCN1 [Compound 12, 4-(4-(4-(benzo[d]thiazol-5-ylamino)quinolin-6-yl)-3-fluorobenzyl)piperazin-2-one]
IC50 (RIPK3): 1.67 nM
IC50 (Murine L929 cells): 776 nM
IC50 (Human HT-29 cells): 208 nM

CN1CCN(Cc2ccc(-c3ccc4nccc(Nc5ccc6scnc6c5)c4c3)c(F)c2)CC1=O [Compound 13, 4-(4-(4-(benzo[d]thiazol-5-ylamino)quinolin-6-yl)-3-fluorobenzyl)-1-methylpiperazin-2-one]
IC50 (RIPK3): 1.72 nM
IC50 (Murine L929 cells): 1130 nM
IC50 (Human HT-29 cells): 317 nM

Fc1cc(CN2CCCCC2)ccc1-c1ccc2nccc(Nc3ccc4scnc4c3)c2c1 [Compound 14, N-(6-(2-fluoro-4-(piperidin-1-ylmethyl)phenyl)quinolin-4-yl)benzo[d]thiazol-5-amine]
IC50 (RIPK3): 2.99 nM
IC50 (Murine L929 cells): 492 nM
IC50 (Human HT-29 cells): 565 nM

CN1CCN(c2ccc(-c3ccc4nccc(Nc5ccc6scnc6c5)c4c3)cc2)CC1 [Compound 15, N-(6-(4-(4-methylpiperazin-1-yl)phenyl)quinolin-4-yl)benzo[d]thiazol-5-amine]
IC50 (RIPK3): 3.57 nM
IC50 (Murine L929 cells): 1190 nM
IC50 (Human HT-29 cells): > 1000 nM

CN1CCN(Cc2ccc(-c3ccc4c(Nc5ccc6scnc6c5)ccnc4c3)cc2)CC1 [Compound 16, N-(7-(4-((4-methylpiperazin-1-yl)methyl)phenyl)quinolin-4-yl)benzo[d]thiazol-5-amine]
IC50 (RIPK3): 0.51 nM
IC50 (Murine L929 cells): 104 nM
IC50 (Human HT-29 cells): 158 nM

OCCN1CCN(Cc2ccc(-c3ccc4nccc(Nc5ccc6scnc6c5)c4c3)c(F)c2)CC1 [Compound 17, 2-(4-(4-(4-(benzo[d]thiazol-5-ylamino)quinolin-6-yl)-3-fluorobenzyl)piperazin-1-yl)ethanol]
IC50 (RIPK3): 0.95 nM
IC50 (Murine L929 cells): 341 nM
IC50 (Human HT-29 cells): 97.1 nM

CN1CCN(Cc2ccc(-c3ccc4nccc(Nc5ccc6scnc6c5)c4c3)cc2F)CC1 [Compound 21, N-(6-(3-fluoro-4-((4-methylpiperazin-1-yl)methyl)phenyl)quinolin-4-yl)benzo[d]thiazol-5-amine]
IC50 (RIPK3): 1.51 nM
IC50 (Murine L929 cells): < 10000 nM

Fc1cc(CN2CCOCC2)ccc1-c1ccc2nccc(Nc3ccc4scnc4c3)c2c1 [Compound 22, N-(6-(2-fluoro-4-(morpholinomethyl)phenyl)quinolin-4-yl)benzo[d]thiazol-5-amine]
IC50 (RIPK3): 2.13 nM
IC50 (Murine L929 cells): 316 nM
IC50 (Human HT-29 cells): 327 nM

Fc1cc(CN2CCCC2)ccc1-c1ccc2nccc(Nc3ccc4scnc4c3)c2c1 [Compound 23, N-(6-(2-fluoro-4-(pyrrolidin-1-ylmethyl)phenyl)quinolin-4-yl)benzo[d]thiazol-5-amine]
IC50 (RIPK3): 2.21 nM
IC50 (Murine L929 cells): 275 nM
IC50 (Human HT-29 cells): 302 nM

CN1CCCN(Cc2ccc(-c3ccc4nccc(Nc5ccc6scnc6c5)c4c3)c(F)c2)CC1 [Compound 27, N-(6-(2-fluoro-4-((4-methyl-1,4-diazepan-1-yl)methyl)phenyl)quinolin-4-yl)benzo[d]thiazol-5-amine]
IC50 (RIPK3): 1.13 nM
IC50 (Murine L929 cells): 669 nM
IC50 (Human HT-29 cells): 168 nM

O=C(c1ccc(-c2ccc3c(Nc4ccc5scnc5c4)ccnc3c2)c(F)c1)N1CCOCC1 [Compound 244, (4-(4-(benzo[d]thiazol-5-ylamino)quinolin-7-yl)-3-fluorophenyl)(morpholino)methanone]
IC50 (RIPK3): 1.92 nM
IC50 (Murine L929 cells): < 1000 nM
